Values quoted from earlier work, collected in article PMC9795861, “Inclusion complexes of the steroid hormones 17β-estradiol and progesterone with β- and γ-cyclodextrin hosts: syntheses, X-ray structures, thermal analyses and API solubility enhancements” (Beilstein Journal of Organic Chemistry, 2022).
Read-outs that look alike come from different tables or passages of the source.

Columns and labels:
[1] = set-up: method as in earlier work

Compound | oral bioavailability relative to that of BES [1] | aqueous solubility (at 27 °C, ethinylestradiol) | aqueous solubility (at 25 °C, pure progesterone, ref 6-8 (b3))
C#C[C@]1(O)CC[C@H]2[C@@H]3CCc4cc(O)ccc4[C@H]3CC[C@@]21C [ethinylestradiol] | significantly higher | 11.3 × 10^−3 mg·cm^−3 | –
CC(=O)[C@H]1CC[C@H]2[C@@H]3CCC4=CC(=O)CC[C@]4(C)[C@H]3CC[C@]12C [progesterone] | – | – | 8.81 × 10^−3 mg·cm^−3
